Measurements as given in US20250281498A1, “FUSED AMINO PYRIMIDINE COMPOUNDS FOR TREATMENT OF SYNUCLEINOPATHIES AND TDP-43 PROTEINOPATHIES” (Ovid Therapeutics Inc., priority 2024, published 2025).

Target: T1, KCC2 (Homo sapiens, UniProt Q9H2X9)
T1 construct: expressed in transfected cells; host or cells: HEK-293 (ATCC CRL-1573)
T1 sequence (Q9H2X9 1-1116 isoform Q9H2X9-2): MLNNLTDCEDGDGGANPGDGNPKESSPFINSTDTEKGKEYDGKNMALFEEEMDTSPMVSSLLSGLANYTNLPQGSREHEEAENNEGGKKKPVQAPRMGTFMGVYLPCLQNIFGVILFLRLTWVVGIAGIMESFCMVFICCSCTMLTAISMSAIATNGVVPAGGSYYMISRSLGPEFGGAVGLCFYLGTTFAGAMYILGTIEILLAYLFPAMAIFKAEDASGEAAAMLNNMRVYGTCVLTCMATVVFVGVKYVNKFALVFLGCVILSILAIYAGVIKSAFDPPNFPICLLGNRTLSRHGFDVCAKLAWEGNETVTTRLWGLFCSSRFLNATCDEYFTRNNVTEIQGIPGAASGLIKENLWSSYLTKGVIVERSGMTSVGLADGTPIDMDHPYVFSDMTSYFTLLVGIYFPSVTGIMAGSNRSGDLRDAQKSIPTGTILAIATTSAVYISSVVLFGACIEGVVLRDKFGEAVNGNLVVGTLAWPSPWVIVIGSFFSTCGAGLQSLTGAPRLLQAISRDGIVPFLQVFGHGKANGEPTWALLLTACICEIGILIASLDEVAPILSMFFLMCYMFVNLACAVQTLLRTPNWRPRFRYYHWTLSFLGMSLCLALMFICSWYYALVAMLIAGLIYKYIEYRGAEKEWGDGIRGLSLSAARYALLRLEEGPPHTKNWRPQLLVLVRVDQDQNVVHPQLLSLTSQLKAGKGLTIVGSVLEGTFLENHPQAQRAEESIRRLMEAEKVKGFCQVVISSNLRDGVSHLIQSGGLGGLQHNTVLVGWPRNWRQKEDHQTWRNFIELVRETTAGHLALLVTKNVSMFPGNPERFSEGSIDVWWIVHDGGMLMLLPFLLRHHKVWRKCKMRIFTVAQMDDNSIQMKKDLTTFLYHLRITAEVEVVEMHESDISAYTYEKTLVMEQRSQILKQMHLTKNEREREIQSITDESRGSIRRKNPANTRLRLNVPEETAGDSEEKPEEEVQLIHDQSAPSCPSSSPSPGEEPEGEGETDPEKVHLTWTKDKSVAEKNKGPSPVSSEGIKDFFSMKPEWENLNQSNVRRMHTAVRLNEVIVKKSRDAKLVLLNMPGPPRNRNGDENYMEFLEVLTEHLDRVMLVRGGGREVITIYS
Experiment: FLIPR TI+ flux assay, HEK-293 cells expressing KCC2
Assay type: cell-based
Experimental: A multi-tiered high-throughput screening assay was used, leveraging a proprietary library of 1.3 million small molecule compounds from AstraZeneca (Cambridge, UK) to identify chemical entities capable of activating KCC2. A single point concentration of 30 μM was used to identify potassium flux using an established thallium (TI+) influx FLIPR assay as the primary read out in HEK-293 cells overexpressing KCC2 (Cardarelli et al., Nat. Med. 23, 1394-1396 (2017); Conway et al., J Biol Chem 292, 21253-21263 (2017); Lee et al., 2022, supra).
Cell Culture and biotinylation. […]
FLIPR TI Flux assay. HEK-293 cells were washed with HBSS, and then incubated with loading buffer containing TI sensitive fluorescent dye (https://www.moleculardevices.com), 20 μM bumetanide 20 μM ouabain and 2.5 mM probenecid for 1 h at room temperature (RT) under control conditions or with drugs in the dark using a FlexStation 3 microplate reader (Molecular Devices) and imaged […] for 30 min. Stimulus buffer was added containing 5 mM K^+/0.5 mM Tl^+ and cells were imaged every 1.5 over a 190 second time course The initial rate Tl^+ uptake (Relative Fluorescence Units (RFU) per second) was determined following addition of the stimulus buffer as outlined previously (Conway et al., 2017, supra) (Lee et al., 2022, supra). […]

C[C@@H]1CN(c2nc3c(c(Nc4ccc(C5CCCCC5)cc4)n2)COC3)CCO1 [Compound A, (R)—N-(4-cyclohexylphenyl)-2-(2-methylmorpholino)-5,7-dihydrofuro[3,4-d]pyrimidin-4-amine]
EC50 (HEK-293 cells, 1% β-cyclodextrin (BCD) vehicle, read-out: EC50 for KCC2 as measured by TI+ flux): 261 ± 22.2 nM | maximum potentiation of KCC2 (saturating concentration of 3 μM, 1% BCD vehicle): 90%
